Data as given in the supplement of paper PMC13380429.

Assays:
Conditions in all cases: 72 h
U2OS [1] = assay: cell viability relative to DMSO; higher = less toxic
Caco-2 [2] = assay: as above
Vero E6 [3] = assay: as above
HepG2 [4] = assay: as above
Calu-3 [5] = assay: as above
U2OS [6] = assay: relative viability EC50 (midpoint between 100% and the lowest measured viability); higher = less toxic
Caco-2 [7] = assay: as above
Vero E6 [8] = assay: as above
HepG2 [9] = assay: as above
Calu-3 [10] = assay: as above
U2OS [11] = assay: drug sensitivity score (DSS) for viability; higher = more toxic; extreme values may be limits of the assay
Caco-2 [12] = assay: as above
Vero E6 [13] = assay: as above
HepG2 [14] = assay: as above
Calu-3 [15] = assay: as above

Row | SMILES | cell viability (U2OS [1]; 1 nM) [%] | cell viability (U2OS [1]; 10 nM) [%] | cell viability (U2OS [1]; 100 nM) [%] | cell viability (U2OS [1]; 1000 nM) [%] | cell viability (U2OS [1]; 10000 nM) [%] | cell viability (Caco-2 [2]; 1 nM) [%] | cell viability (Caco-2 [2]; 10 nM) [%] | cell viability (Caco-2 [2]; 100 nM) [%] | cell viability (Caco-2 [2]; 1000 nM) [%] | cell viability (Caco-2 [2]; 10000 nM) [%] | cell viability (Vero E6 [3]; 1 nM) [%] | cell viability (Vero E6 [3]; 10 nM) [%] | cell viability (Vero E6 [3]; 100 nM) [%] | cell viability (Vero E6 [3]; 1000 nM) [%] | cell viability (Vero E6 [3]; 10000 nM) [%] | cell viability (HepG2 [4]; 1 nM) [%] | cell viability (HepG2 [4]; 10 nM) [%] | cell viability (HepG2 [4]; 100 nM) [%] | cell viability (HepG2 [4]; 1000 nM) [%] | cell viability (HepG2 [4]; 10000 nM) [%] | cell viability (Calu-3 [5]; 1 nM) [%] | cell viability (Calu-3 [5]; 10 nM) [%] | cell viability (Calu-3 [5]; 100 nM) [%] | cell viability (Calu-3 [5]; 1000 nM) [%] | cell viability (Calu-3 [5]; 10000 nM) [%] | relative viability EC50 (U2OS [6]) [µM] | relative viability EC50 (Caco-2 [7]) [µM] | relative viability EC50 (Vero E6 [8]) [µM] | relative viability EC50 (HepG2 [9]) [µM] | relative viability EC50 (Calu-3 [10]) [µM] | drug sensitivity score (U2OS [11]) | drug sensitivity score (Caco-2 [12]) | drug sensitivity score (Vero E6 [13]) | drug sensitivity score (HepG2 [14]) | drug sensitivity score (Calu-3 [15])
1 | CC(C)NC(=N)NC(=N)Nc1ccc(Cl)cc1 [proguanil] | 98 | 93.3 | 98.6 | 97.1 | 98.3 | 101 | 93.5 | 108 | 105 | 106 | 97 | 91.9 | 87.3 | 100 | 94.7 | 94.8 | 100 | 91.8 | 106 | 101 | 101 | 90.2 | 96 | 93.7 | 95.4 | > 10 | > 10 | > 10 | > 10 | > 10 | 0 | 0 | 0 | 0 | 0
2 | O=C(O)CCCN1CCC(O[C@@H](c2ccc(Cl)cc2)c2ccccn2)CC1 [bepotastine] |  |  |  |  |  | 91.3 | 92.1 | 99.4 | 93.4 | 107 | 93.2 | 98.3 | 90.2 | 95.8 | 105 | 98.7 | 113 | 99 | 102 | 113 | 97 | 106 | 94.2 | 93.8 | 113 |  | > 10 | > 10 | > 10 | > 10 |  | 0 | 0 | 0 | 0
3 | CN(C)C(=O)Nc1cccc(-c2ccc(N(C)C)cc2)c1 [atglistatin] | 96.4 | 99.3 | 97.8 | 98.5 | 96.5 | 84.3 | 100 | 92.2 | 88.7 | 104 | 99 | 99.7 | 98.3 | 97.6 | 107 | 98.2 | 97.9 | 99.4 | 108 | 113 | 111 | 99.2 | 90.1 | 96.6 | 103 | > 10 | > 10 | > 10 | > 10 | > 10 | 0 | 0 | 0 | 0 | 0
4 | N#Cc1cc(-c2n[nH]c(-c3ccncc3)n2)ccn1 [topiroxostat] |  |  |  |  |  | 98.2 | 92.9 | 89.6 | 95.9 | 107 | 102 | 103 | 101 | 102 | 99.8 | 102 | 91.1 | 98.8 | 100 | 96.1 | 103 | 87.4 | 107 | 95.1 | 118 |  | > 10 | > 10 | > 10 | > 10 |  | 0 | 0 | 0 | 0
5 | CN(C)CC[C@H](CSc1ccccc1)Nc1ccc(S(=O)(=O)NC(=O)c2ccc(N3CCN(Cc4ccccc4-c4ccc(Cl)cc4)CC3)cc2)cc1[N+](=O)[O-] [ABT-737] |  |  |  |  |  | 104 | 92.4 | 105 | 101 | 83.8 | 97.2 | 98.6 | 95.3 | 96 | 95.1 | 109 | 111 | 104 | 95.8 | 93 | 115 | 99.1 | 114 | 95.2 | 39.3 |  | > 10 | > 10 | > 10 | 2.52 |  | 0.3 | 0 | 0 | 4
6 | CCn1c(=O)c(-c2cc[nH]n2)cc2c(C)nc(N)nc21 [voxtalisib] | 99.3 | 97.3 | 97.9 | 93.1 | 60.3 | 102 | 96.7 | 93.5 | 86.5 | 42.9 | 104 | 104 | 91.2 | 80.8 | 33.5 | 108 | 106 | 101 | 88.5 | 35.4 | 95 | 91.9 | 91 | 71.9 | 32.6 |  | 1.61 | 1.55 | 1.84 | 1.17 | 3.1 | 5.2 | 6.1 | 5.4 | 6.8
7 | CCCC(C)(COC(N)=O)COC(=O)NC(C)C (centres undefined) [CARISOPRODOL] | 102 | 97.7 | 101 | 102 | 104 | 96.1 | 103 | 97.6 | 101 | 104 | 106 | 101 | 98.8 | 105 | 101 |  |  |  |  |  | 108 | 88.2 | 93.2 | 85.7 | 98.1 | > 10 | > 10 | > 10 |  | > 10 | 0 | 0 | 0 |  | 0
8 | CC(=O)Nc1ccc(OC(C)=O)cc1 [diacetamate] |  |  |  |  |  | 91.8 | 103 | 94.7 | 101 | 111 | 96.1 | 96 | 94.3 | 84.8 | 101 | 114 | 98.5 | 110 | 101 | 105 | 99.1 | 99.7 | 99.7 | 101 | 84.9 |  | > 10 | > 10 | > 10 | > 10 |  | 0 | 0 | 0 | 0.2
9 | COc1cc2c(cc1OC)-c1cc3nc4ccccc4nc3n1C(C)(C)C2 |  |  |  |  |  | 97.9 | 103 | 106 | 99.1 | 89.1 | 108 | 102 | 104 | 92.2 | 107 | 98.7 | 83.6 | 89.7 | 95.1 | 76.2 | 104 | 103 | 99.8 | 95.2 | 97.3 |  | > 10 | > 10 | > 10 | > 10 |  | 0 | 0 | 1.8 | 0
10 | CCCn1c(=O)[nH]c2nc(-c3ccc(S(=O)(=O)O)cc3)[nH]c2c1=O [PSB-1115] | 99.9 | 109 | 98.2 | 108 | 102 | 99.4 | 94.6 | 111 | 105 | 95.4 | 106 | 105 | 107 | 103 | 95.5 |  |  |  |  |  | 112 | 104 | 100 | 110 | 94.4 | > 10 | > 10 | > 10 |  | > 10 | 0 | 0 | 0 |  | 0
11 | COc1cc(C(=O)NCCCCCC(=O)O)cc(OC)c1OC [capobenic-acid] | 97 | 103 | 94.7 | 111 | 94 | 110 | 111 | 96.7 | 80.2 | 93.5 | 103 | 101 | 99 | 101 | 94.6 |  |  |  |  |  | 96.3 | 94.9 | 94.5 | 104 | 98.6 | > 10 | > 10 | > 10 |  | > 10 | 0 | 3.1 | 0 |  | 0
12 | CCCCCCCCCCCCCCCC[N+](C)(C)CCN(Cc1ccc(OC)cc1)c1ncccn1 [thonzonium] |  |  |  |  |  | 106 | 98.1 | 110 | 80.3 | 7.2 | 96 | 97.8 | 94.6 | 97.5 | 85.6 | 94.4 | 101 | 93.8 | 103 | 24.4 | 102 | 100 | 96.3 | 85.8 | -0.1 |  | 1.69 | > 10 | 3.41 | 2.04 |  | 8.3 | 0.4 | 3.9 | 7.9
13 | COC(=O)[C@H](NC(=O)c1cc(-c2ccccc2)nc2ccccc12)c1ccccc1 |  |  |  |  |  | 110 | 94.9 | 106 | 104 | 109 | 92.6 | 91.3 | 91.5 | 92.7 | 100 | 91.4 | 99.6 | 96.4 | 89.6 | 103 | 104 | 93 | 101 | 102 | 103 |  | > 10 | > 10 | > 10 | > 10 |  | 0 | 0 | 0 | 0
